How the values were obtained:
[1] = tested on: savory taste, human panelists; experiment: Umami/savory flavor experiments using human panelists (trained panel, difference from reference); format: in vivo; details: 12 mM MSG + cpd vs reference 12 mM MSG + 100 μM IMP
Experimental: General Panelist Selection: Basic screening of sensory taste testers: Potential panelists were tested for their abilities to rank and rate intensities of solutions representing the five basic tastes. Panelists ranked and rated intensity of five different concentrations of each of the five following compounds: sucrose (sweet), sodium chloride (salty), citric acid (sour), caffeine (bitter), and monosodium glutamate (savory). In order to be selected for participation in testing, panelists needed to correctly rank and rate samples for intensity, with a reasonable number of errors
Preliminary Taste Tests: The panelists selected in the above procedure were deemed qualified for performing Preliminary Taste Testing procedures. The preliminary taste tests are used to evaluate new compounds for intensity of basic tastes and off-tastes. A small group of panelists (n=5) taste approximately 5 concentrations of the compound (range typically between 1-100 μM, in half-log cycles, e.g., 1, 3, 10, 30, and 100 μM) in water and in a solution of 12 mM MSG to evaluate enhancement. Panelists rate the five basic tastes (sweet, salty, sour, bitter, and savory) as well as off-tastes (such as chemical, metallic, sulfur) on a labeled magnitude scale. Samples are served in 10 mL portions at room temperature. The purpose of the test is to determine the highest concentration at which there is no objectionable off-taste, and determine if obvious savory taste or enhancement of savory taste exists at any of the concentrations tested.
Trained Panelist Selection: A trained expert panel was used to further evaluate compounds that had been tested with the preliminary taste test.
Panelists for the trained panel were selected from the larger group of qualifying taste panelists. Panelists were further trained on savory taste by ranking and rating experiments using MSG and IMP combinations. Panelists completed a series of ranking, rating, and difference from reference tests with savory solutions. In ranking and rating experiments, panelists evaluated easy MSG concentrations (0, 6, 18, 36 mM) and more difficult MSG concentrations (3, 6, 12, 18 mM MSG) in water.
Compound testing with Trained Panel: Compounds tested by the trained panel were evaluated in difference from reference experiments. […] Test samples were solutions with varying amounts of MSG, IMP, and the compound.
Compounds were tested against the reference in samples with and without 12 mM MSG. All samples were presented in 10 ml volumes at room temperature. Two sessions were completed for each compound tested to evaluate panel reproducibility.

un-induced I-17 cells = experiment: FLIPR assay on un-induced I-17 cells (receptor dependency control); format: cell-based; details: I-17 cells not induced with mifepristone; compounds presented at 10 μM
Experimental: In order to determine the dependency of hT1R1/hT1R3 for the cell response to different stimuli, selected compounds were subjected to a similar analysis on I-17 cells that had not been induced for receptor expression with mifepristone (designated as un-induced I-17 cells). […] Compounds were presented to un-induced umami cells at […]—or three times the maximum stimulation used in the dose-response analysis.

HEK293-Gα15 cells = experiment: FLIPR assay on HEK293-Gα15 cells not expressing the human sweet receptor (receptor dependency control); format: cell-based
Excerpt: In order to determine the dependency of hT1R2/hT1R3 for the cell response to different stimuli, selected compounds were subjected to a similar analysis on HEK293-Gα15 cells (not expressing the human sweet receptor).

SMILES: COc1cc(C)ccc1CNC(=O)C(=O)NCCc1ccc(C)cn1 [Example 157, N^1-(2-methoxy-4-methylbenzyl)-N^2-(2-(5-methylpyridin-2-yl)ethyl)oxalamide]
- Taste Data: concentration of cpd with 12 mM MSG that is as strong as 12 mM MSG + 100 μM IMP [1]: 12 mM MSG + 0.3 μM cpd as strong as
- melting point: 116 to 117 °C

SMILES: N[C@@H](CCC(=O)O)C(=O)[O-].[Na+] [monosodium glutamate]
- functional response in the FLIPR assay using un-induced umami cells (un-induced I-17 cells): do not show any functional response

SMILES: O=C(CO)[C@@H](O)[C@H](O)[C@H](O)CO [D-Fructose]
- functional response in the FLIPR assay using HEK293-Gα15 cells (HEK293-Gα15 cells): do not show any functional response

— patent US8124121B2, “Flavors, flavor modifiers, tastants, taste enhancers, umami or sweet tastants, and/or enhancers and use thereof” (Senomyx, Inc., priority 2003, dated 2012)
